Source: article PMC3172288, “RLIP76, a Glutathione-Conjugate Transporter, Plays a Major Role in the Pathogenesis of Metabolic Syndrome” (PLoS ONE, 2011)

Tests used:
RLIP76 [1] = molecular target: T1, RLIP76 (Homo sapiens, UniProt Q15311); assay: ATP-dependent uptake of 3H-GSHNE into RLIP76 proteoliposomes; type: biochemical; details: 10 µM, labelled compound, 37 °C
T1 construct: gene RALBP1; purified recombinant RLIP76 reconstituted in proteoliposomes
T1 sequence (Q15311 2-655): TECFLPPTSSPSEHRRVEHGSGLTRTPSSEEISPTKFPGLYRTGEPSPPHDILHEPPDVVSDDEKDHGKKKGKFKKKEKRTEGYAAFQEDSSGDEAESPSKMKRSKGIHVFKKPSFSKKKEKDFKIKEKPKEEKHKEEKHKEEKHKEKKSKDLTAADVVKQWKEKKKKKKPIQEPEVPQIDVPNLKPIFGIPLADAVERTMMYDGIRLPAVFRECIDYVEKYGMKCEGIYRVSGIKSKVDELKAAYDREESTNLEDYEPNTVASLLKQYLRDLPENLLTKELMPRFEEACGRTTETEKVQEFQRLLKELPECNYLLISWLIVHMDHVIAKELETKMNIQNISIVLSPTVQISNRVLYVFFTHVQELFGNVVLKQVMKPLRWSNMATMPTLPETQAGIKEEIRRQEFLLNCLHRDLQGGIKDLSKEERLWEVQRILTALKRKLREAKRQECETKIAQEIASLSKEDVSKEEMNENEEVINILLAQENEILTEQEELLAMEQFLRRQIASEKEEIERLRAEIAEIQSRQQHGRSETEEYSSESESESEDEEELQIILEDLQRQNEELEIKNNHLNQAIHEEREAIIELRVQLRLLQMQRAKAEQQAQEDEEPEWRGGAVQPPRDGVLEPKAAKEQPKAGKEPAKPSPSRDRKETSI

RLIP76 [2] = molecular target: T1, RLIP76; assay: inhibition of ATP-dependent 3H-GSHNE uptake into RLIP76 proteoliposomes; type: biochemical; details: 10 µM 3H-GSHNE, 0-100 µM drug, 30 min incubation at 37 °C

Row | SMILES | ATP-dependent uptake of 3H-GSHNE into RLIP76 proteoliposomes (RLIP76 [1]) | inhibition of ATP-dependent 3H-GSHNE uptake into RLIP76 proteoliposomes (RLIP76 [2])
1 | CCCCCC(O)C(CC=O)SC[C@H](NC(=O)CC[C@H](N)C(=O)O)C(=O)NCC(=O)O (stereo partly drawn) [3H-GSHNE] | ATP-dependent uptake of ^3H-GSHNE | –
2 | CN(C)C(=N)NC(=N)N [metformin] | – | metformin inhibits only half of the transport activity
3 | CN(CCOc1ccc(CC2SC(=O)NC2=O)cc1)c1ccccn1 (stereo not drawn) [rosiglitazone] | – | Inhibition of the transport activity of purified recombinant human RLIP76 towards physiological substrate
